Measurements from ChEMBL document CHEMBL4346723, “Targeting tropomyosin receptor kinase for cancer therapy” (Eur J Med Chem, 2019).

What was measured:
[1] = target: BDNF/NT-3 growth factors receptor (Homo sapiens, UniProt Q16620); experiment: Inhibition of TRKB (unknown origin)
[2] = target: T1, High affinity nerve growth factor receptor (Homo sapiens, UniProt P04629); experiment: Inhibition of recombinant full length human TRKA expressed in U2OS cells using Poly(Glu:Tyr) as substrate after 30 mins by scintillation counting assay
[3] = target: Tyrosine-protein kinase BTK (Homo sapiens, UniProt Q06187); experiment: Inhibition of BTK (unknown origin)
[4] = target: T1, High affinity nerve growth factor receptor; experiment: Inhibition TRKA (unknown origin) by cell based assay
[5] = Inhibition of TRK (unknown origin); parameters: species or system Homo sapiens
[6] = target: T1, High affinity nerve growth factor receptor; experiment: Inhibition of NTRK1 in human KM12 cells; format: cell-based
NTRK1/NTRK2 = NTRK1/NTRK2 (Homo sapiens, UniProt P04629+Q16620); experiment: Inhibition of TRKA/TRKB (unknown origin); format: protein assay
OVCAR-3 = experiment: Cytotoxicity against human OVCAR3 cells after 24 to 72 hrs by MTT assay; format: functional, cell-based
SK-OV-3 = experiment: Cytotoxicity against human SKOV3 cells after 24 to 72 hrs by MTT assay; format: functional, cell-based
[7] = target: T1, High affinity nerve growth factor receptor; experiment: Inhibition of recombinant N- terminal GST-tagged human NTRK1 expressed in baculovirus infected Sf9 cells using Poly(Glu:Tyr) as substrate after 45 mins
[8] = target: T1, High affinity nerve growth factor receptor; experiment: Inhibition of human TRKA expressed in human AD293 cells assessed as reduction in TrkA phosphorylation at Tyr490 residues preincubated for 20 mins followed by NGF-stimulation measure after 5 mins by ELISA; format: cell-based

T1 sequence (P04629 whole entry): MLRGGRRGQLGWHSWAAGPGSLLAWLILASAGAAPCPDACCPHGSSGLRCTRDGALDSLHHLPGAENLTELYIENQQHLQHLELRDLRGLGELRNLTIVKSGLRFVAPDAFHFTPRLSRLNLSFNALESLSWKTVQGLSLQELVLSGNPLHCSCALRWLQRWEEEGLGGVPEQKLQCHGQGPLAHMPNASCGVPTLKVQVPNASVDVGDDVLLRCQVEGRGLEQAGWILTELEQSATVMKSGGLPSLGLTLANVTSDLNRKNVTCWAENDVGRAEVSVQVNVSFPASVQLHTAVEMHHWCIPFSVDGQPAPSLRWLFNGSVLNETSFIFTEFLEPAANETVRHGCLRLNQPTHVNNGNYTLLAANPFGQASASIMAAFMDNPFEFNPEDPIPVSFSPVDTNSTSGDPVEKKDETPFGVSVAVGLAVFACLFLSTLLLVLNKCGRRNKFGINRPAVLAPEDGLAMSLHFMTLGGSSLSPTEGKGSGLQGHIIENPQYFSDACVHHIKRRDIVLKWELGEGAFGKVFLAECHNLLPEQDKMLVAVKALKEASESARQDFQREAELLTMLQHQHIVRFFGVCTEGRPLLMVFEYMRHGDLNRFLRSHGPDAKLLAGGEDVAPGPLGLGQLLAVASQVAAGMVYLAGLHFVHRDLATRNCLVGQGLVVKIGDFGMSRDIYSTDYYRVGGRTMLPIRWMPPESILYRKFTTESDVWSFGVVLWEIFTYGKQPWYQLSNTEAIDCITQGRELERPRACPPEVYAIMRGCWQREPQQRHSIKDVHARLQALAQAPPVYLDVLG
BDNF/NT-3 growth factors receptor, sequence (Q16620 whole entry): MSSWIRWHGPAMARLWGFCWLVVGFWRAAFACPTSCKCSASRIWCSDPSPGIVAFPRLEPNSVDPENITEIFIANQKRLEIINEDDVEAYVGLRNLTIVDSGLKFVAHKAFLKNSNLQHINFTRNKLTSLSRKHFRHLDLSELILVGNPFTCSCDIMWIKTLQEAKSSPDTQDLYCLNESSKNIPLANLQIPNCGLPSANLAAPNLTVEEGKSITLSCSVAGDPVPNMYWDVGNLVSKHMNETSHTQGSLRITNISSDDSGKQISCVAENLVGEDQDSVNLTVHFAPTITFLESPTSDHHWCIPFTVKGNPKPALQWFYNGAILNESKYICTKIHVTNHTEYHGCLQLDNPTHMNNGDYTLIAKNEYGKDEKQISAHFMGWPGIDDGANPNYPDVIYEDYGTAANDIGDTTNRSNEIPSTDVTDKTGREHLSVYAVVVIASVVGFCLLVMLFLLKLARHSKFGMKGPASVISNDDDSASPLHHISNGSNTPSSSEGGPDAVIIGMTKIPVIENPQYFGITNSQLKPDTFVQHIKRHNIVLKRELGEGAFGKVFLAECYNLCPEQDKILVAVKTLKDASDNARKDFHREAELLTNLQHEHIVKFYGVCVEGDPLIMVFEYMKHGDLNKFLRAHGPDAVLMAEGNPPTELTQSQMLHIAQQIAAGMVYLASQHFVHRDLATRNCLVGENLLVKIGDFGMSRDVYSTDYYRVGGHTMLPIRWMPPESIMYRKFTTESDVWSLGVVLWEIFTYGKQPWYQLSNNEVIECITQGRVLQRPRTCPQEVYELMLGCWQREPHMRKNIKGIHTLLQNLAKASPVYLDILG
Tyrosine-protein kinase BTK, sequence (Q06187 whole entry): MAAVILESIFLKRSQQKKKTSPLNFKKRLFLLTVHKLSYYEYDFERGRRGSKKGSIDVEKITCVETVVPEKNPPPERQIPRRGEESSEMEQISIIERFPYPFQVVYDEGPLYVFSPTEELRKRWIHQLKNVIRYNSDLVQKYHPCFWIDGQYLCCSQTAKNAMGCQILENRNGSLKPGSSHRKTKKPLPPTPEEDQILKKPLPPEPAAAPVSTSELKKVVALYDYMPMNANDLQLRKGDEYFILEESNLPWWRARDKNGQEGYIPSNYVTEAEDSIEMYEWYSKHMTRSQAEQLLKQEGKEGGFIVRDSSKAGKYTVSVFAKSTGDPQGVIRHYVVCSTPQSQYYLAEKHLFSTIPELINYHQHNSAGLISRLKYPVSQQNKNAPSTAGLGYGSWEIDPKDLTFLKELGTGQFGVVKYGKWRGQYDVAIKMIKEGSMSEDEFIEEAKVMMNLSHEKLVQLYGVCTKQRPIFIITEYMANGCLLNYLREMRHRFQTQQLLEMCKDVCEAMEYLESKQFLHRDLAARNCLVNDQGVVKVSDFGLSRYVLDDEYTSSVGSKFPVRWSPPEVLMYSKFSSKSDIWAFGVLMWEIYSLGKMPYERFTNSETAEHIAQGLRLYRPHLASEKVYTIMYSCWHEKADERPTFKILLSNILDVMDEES

Molecule | IC50 [2] | IC50 [5] | also measured
CC(C)N1Cc2cc(c(F)cc2F)OCCCNC(=O)c2cnn3ccc1nc23 | 0.2 nM |  | IC50 [1]: 5000 nM; IC50 [3]: 9.67 nM
CS(=N)(=O)c1ccc(-c2ccc(CNC(=O)Cn3c4c(c5cc(F)ccc53)CCn3nccc3-4)nc2)cc1 (stereo not given) | 0.7 to 1 nM |  | 
COCCN1C[C@@H](NC(=O)Nc2c(C)c(-c3cnn(C)c3)nn2-c2ccccc2)[C@H](c2ccccc2)C1 | 1.7 nM |  | IC50 [4]: 6.1 nM
N#Cc1cc([N+](=O)[O-])c(Nc2cc(C3CC3)[nH]n2)cc1N[C@@H](CO)c1ccc(F)cc1 |  | 859 nM | 
Cn1ccc(-c2cc(C(=O)Nc3c(-c4ccccc4)nc4ccc(CO)cn34)ccc2C(F)(F)F)n1 | 1 nM |  | 
COc1ccc2nc(N[C@@H](CO)c3ccc(F)cc3)nc(Nc3cc(C4CC4)[nH]n3)c2c1 |  | 87 nM | 
N#Cc1cc(F)cc([C@H]2C[C@H](F)CN2c2ccn3ncc(C#N)c3n2)c1 |  |  | IC50 [6]: < 10 nM
N#Cc1cnn2ccc(N3C[C@@H](F)C[C@@H]3c3cc(F)ccc3F)nc12 |  |  | IC50 [6]: < 10 nM
COCCN1C[C@@H](NC(=O)Nc2c(C)c(-c3ccnc(C)n3)nn2-c2ccccc2)[C@H](c2cccc(F)c2)C1 | 1.1 nM |  | IC50 [4]: 1.9 nM
CC(C)c1cc(C(=O)c2cccc(NC(=O)Nc3ccc4ccccc4c3)c2)c2c(N)ncnn12 |  |  | IC50 (NTRK1/NTRK2): < 1 nM
C[C@H](Nc1nc(Nc2cc(C3CC3)[nH]n2)c(Cl)cc1Cl)c1ccc(F)cc1 |  | 109 nM | 
C[C@H](Nc1cc(NCCO)c([N+](=O)[O-])c(Nc2cc(C3CC3)[nH]n2)c1)c1ccc(F)cc1 |  | 1240 nM | 
C[C@H](Nc1cc(Nc2cc(C3CC3)[nH]n2)c([N+](=O)[O-])cc1F)c1ccc(F)cc1 |  | 426 nM | 
C[C@H](Nc1ccc([N+](=O)[O-])c(Nc2cc(C3CC3)[nH]n2)n1)c1ccc(F)cc1 |  | 63 nM | 
COCCN1C[C@@H](NC(=O)Nc2c(C)c(C(C)(C)C)nn2-c2ccccc2)[C@H](c2ccc(F)c(F)c2)C1 | 1.5 nM |  | IC50 [4]: 1.3 nM
H-NTDLLNSNDNG-OH |  |  | IC50 (OVCAR-3): 200 nM; IC50 (SK-OV-3): 200 nM
OCC[C@H](Nc1nc(Nc2cc(C3CC3)[nH]n2)c2sccc2n1)c1ccc(F)cc1 |  | 59 nM | 
Nc1cc(NS(=O)(=O)c2cccc(C(F)(F)F)c2)cc(-c2ccc3c(-c4ccncc4)c[nH]c3n2)c1 |  | > 1000 nM | 
O=C(Cn1c2c(c3cc(F)ccc31)CCn1nccc1-2)NCc1ccc(-c2c(F)cccc2F)cn1 | 0.9 to 1 nM |  | 
CC(C)(O)c1ccc2nc(-c3ccccc3)c(NC(=O)c3cc(-c4ncccn4)c(C(F)(F)F)cc3F)n2c1 | 0.89 nM |  | 
CN(C)CCCc1cc(C(=O)c2cccc(NC(=O)Nc3ccc(Cl)cc3Cl)c2)c2c(N)ncnn12 |  |  | IC50 (NTRK1/NTRK2): < 1 nM
CS(=O)(=O)Nc1cccc(-c2c[nH]c3ncc(-c4cncc(NS(=O)(=O)c5ccccc5)c4)cc23)c1 |  | > 1000 nM | 
C[C@H](Nc1ncc(Br)c(Nc2cc(C3CC3)[nH]n2)n1)c1ccc(F)cn1 |  | 5 nM | 
CC(C)c1nnc(-c2cnn3ccc(N4CCCC4c4cc(F)ccc4F)nc23)s1 (stereo not given) |  |  | IC50 [7]: < 10 nM
O=C(Nc1c(-c2ccccc2)nc2ccccn12)NC1c2ccccc2-c2ccccc21 | 28 to 30 nM |  | 
Cc1nc(-c2ccccc2)c(NC(=O)Nc2cnc3ccccn23)s1 | 48 nM |  | 
COCCN1C[C@@H](NC(=O)Nc2cc3c(nc2-c2ccccc2)CCCC3)[C@H](c2ccccc2)C1 |  |  | IC50 [8]: < 100 nM
CC(C)c1cc(C(=O)c2cccc(NC(=O)Nc3ccccc3)c2)c2c(N)ncnn12 |  |  | IC50 (NTRK1/NTRK2): < 1 nM
COCCN1C[C@@H](NC(=O)Nc2cc3ccccc3nc2-c2ccccc2)[C@H](c2ccccc2)C1 |  |  | IC50 [8]: < 100 nM
